Reference: US20090304692A1, “TRIAZINE COMPOUNDS AS PI3 KINASE AND MTOR INHIBITORS” (Wyeth, priority 2008, published 2009)
Read-outs that look alike come from different tables or passages of the source.

How the values were obtained:
Human mTOR (FLAG-TOR) = Human mTOR (FLAG-TOR) (Homo sapiens, UniProt P42345); experiment: mTOR kinase assay (DELFIA format, purified enzyme); type: biochemical; conditions: read-out: IC50 mTOR
[1] = tested on: human prostate LNCap tumor cell line; experiment: In vitro cell culture growth assay (MTS), LNCap; conditions: read-out: IC50 LNCap
PI3K-α = PI3K-α (Homo sapiens, UniProt P42336); experiment: PI3K-alpha fluorescence polarization assay
Chain of PI3K-α (P42336 whole entry, species assumed): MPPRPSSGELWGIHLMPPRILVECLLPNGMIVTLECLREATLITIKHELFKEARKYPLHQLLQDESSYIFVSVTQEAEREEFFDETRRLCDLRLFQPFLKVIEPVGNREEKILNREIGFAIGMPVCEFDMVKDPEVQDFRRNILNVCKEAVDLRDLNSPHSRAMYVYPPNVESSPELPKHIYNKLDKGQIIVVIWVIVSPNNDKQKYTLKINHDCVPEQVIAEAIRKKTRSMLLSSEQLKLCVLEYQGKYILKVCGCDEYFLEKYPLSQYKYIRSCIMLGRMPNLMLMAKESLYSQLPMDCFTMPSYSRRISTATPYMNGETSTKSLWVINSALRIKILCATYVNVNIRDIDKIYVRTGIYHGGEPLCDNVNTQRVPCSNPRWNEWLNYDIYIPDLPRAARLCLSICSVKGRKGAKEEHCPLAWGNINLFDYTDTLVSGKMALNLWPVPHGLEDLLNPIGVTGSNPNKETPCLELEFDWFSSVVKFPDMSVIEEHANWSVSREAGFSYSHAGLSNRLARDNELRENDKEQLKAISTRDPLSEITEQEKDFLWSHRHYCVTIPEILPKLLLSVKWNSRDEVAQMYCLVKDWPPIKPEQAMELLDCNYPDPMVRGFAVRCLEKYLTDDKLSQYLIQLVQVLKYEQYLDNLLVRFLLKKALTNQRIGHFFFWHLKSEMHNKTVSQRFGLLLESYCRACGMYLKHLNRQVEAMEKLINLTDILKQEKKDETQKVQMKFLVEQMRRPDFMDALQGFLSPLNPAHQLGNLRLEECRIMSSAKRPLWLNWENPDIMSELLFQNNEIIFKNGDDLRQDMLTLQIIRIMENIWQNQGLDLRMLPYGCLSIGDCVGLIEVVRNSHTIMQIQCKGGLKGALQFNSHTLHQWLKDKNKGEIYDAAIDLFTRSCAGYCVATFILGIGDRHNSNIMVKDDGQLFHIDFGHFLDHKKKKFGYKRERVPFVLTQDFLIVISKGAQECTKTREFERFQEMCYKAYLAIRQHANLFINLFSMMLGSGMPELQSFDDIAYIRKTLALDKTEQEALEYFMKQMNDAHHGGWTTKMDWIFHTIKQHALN
Chain of PI3K-α (P27986 whole entry partner, species assumed): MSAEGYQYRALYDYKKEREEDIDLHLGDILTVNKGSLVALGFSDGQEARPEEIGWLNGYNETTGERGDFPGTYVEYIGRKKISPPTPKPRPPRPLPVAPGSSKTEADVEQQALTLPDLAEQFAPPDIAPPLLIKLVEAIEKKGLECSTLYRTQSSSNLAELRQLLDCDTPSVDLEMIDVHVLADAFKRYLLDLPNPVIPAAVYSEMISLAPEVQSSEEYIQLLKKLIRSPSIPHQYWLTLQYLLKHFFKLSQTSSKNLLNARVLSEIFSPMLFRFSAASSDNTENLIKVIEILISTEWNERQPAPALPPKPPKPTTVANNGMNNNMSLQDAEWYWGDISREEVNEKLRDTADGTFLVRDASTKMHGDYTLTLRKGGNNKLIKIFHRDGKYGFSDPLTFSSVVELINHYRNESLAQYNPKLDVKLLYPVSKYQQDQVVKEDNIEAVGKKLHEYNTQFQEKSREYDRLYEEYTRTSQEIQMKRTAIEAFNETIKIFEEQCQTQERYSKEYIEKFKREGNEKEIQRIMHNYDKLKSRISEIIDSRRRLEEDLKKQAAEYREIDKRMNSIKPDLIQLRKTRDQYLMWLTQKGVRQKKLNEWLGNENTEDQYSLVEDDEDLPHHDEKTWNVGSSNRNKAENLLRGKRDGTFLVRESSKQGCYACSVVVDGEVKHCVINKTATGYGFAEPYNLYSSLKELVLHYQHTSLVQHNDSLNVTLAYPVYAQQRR

PI3K-γ = PI3K-γ (Homo sapiens, UniProt P48736); experiment: PI3K-gamma fluorescence polarization assay; conditions: read-out: IC50 PI3Kγ
Chain of PI3K-γ (P48736 whole entry, species assumed): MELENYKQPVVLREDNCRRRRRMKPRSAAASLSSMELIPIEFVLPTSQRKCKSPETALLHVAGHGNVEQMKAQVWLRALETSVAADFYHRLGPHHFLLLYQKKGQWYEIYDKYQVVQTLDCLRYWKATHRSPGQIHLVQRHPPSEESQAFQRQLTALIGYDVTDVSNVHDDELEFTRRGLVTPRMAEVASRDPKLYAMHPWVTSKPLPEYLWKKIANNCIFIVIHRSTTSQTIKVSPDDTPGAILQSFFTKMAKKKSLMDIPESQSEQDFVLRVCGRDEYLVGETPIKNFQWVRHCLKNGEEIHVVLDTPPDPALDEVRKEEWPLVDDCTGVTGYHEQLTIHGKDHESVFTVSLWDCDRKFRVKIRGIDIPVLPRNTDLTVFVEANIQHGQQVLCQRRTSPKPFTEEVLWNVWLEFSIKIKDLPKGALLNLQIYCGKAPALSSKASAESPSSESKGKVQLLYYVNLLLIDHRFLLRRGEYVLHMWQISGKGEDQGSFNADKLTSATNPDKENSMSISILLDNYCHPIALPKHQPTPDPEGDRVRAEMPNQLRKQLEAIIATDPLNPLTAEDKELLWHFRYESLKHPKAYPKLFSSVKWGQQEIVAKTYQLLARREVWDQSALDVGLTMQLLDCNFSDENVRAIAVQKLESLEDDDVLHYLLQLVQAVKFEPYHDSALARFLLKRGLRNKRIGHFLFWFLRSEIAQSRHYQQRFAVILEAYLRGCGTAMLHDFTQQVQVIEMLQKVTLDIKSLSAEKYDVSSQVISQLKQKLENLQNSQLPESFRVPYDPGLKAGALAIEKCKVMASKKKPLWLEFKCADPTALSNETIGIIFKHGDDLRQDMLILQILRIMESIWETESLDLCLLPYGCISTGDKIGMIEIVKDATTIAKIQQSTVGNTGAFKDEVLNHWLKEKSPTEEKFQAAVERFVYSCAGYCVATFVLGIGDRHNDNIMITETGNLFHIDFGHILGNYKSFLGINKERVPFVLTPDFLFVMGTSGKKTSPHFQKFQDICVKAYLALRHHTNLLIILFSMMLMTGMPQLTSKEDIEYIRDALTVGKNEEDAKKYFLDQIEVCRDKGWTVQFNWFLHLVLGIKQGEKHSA

[2] = MTS cell growth assay, three days after drug treatment

Chain of Human mTOR (FLAG-TOR) (P42345 1360-2549 limits assumed): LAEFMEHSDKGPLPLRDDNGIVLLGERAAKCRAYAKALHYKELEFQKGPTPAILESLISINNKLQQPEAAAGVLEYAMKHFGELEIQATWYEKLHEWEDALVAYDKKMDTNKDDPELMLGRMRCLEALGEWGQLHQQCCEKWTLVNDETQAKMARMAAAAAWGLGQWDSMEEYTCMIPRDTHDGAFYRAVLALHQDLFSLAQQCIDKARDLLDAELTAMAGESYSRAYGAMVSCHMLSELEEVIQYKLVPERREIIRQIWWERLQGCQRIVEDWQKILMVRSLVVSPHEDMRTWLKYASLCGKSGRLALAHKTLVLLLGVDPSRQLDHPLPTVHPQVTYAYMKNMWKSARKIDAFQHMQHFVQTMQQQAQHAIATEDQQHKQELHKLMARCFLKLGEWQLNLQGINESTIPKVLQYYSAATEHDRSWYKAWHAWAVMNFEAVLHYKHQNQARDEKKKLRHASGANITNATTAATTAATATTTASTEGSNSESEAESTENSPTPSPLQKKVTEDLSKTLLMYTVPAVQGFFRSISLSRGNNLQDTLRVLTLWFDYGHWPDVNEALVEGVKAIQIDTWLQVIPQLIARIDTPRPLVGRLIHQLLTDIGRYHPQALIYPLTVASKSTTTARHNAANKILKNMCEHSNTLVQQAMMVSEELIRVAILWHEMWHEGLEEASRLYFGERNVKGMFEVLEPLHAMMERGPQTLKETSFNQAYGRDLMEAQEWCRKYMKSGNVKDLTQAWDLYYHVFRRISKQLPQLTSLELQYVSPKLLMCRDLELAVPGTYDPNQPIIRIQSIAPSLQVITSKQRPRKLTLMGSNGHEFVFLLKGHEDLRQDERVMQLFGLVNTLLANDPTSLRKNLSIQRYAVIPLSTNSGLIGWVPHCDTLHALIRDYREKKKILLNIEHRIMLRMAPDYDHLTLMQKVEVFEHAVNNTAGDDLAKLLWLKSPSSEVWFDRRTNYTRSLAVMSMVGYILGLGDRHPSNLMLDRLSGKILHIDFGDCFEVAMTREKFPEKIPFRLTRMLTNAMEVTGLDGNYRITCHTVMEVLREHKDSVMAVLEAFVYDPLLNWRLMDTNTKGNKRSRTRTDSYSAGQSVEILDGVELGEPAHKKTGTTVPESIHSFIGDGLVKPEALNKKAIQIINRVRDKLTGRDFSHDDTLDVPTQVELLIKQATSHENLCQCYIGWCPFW

Compound	IC50 (Human mTOR (FLAG-TOR)) [nM]	IC50 ([1]; Homo sapiens, LNCaP, 72 h) [nM]	IC50 (PI3K-α; read-out: IC50 PI3Kα) [nM]	other results
CNC(=O)Nc1ccc(-c2nc(-c3ccc(NC(=O)Nc4cccc(C(N)=O)c4)cc3)nc(N3CCOCC3)n2)cc1 [Example 466, 3-({[4-(4-{4-[(methylcarbamoyl)amino]phenyl}-6-morpholin-4-yl-1,3,5-triazin-2-yl)phenyl]carbamoyl}amino) benzamide]	1			IC50 ([1]; MTS cell growth assay, three days after drug treatment, LNCap cells): 420 nM
O=C(Nc1ccncc1)Nc1ccc(-c2nc(N3C4CCC3COC4)nc(N3[C@H](CO)CC[C@@H]3CO)n2)cc1 [Example 347, 1-(4-{4-[(2R,5S)-2,5-bis(hydroxymethyl)pyrrolidin-1-yl]-6-(3-oxa-8-azabicyclo[3.2.1]oct-8-yl)-1,3,5-triazin-2-yl}phenyl)-3-pyridin-4-ylurea]		9	796	IC50 (PI3K-γ): 8440 nM
CN1CCCN(c2nc(-c3ccc(NC(=O)Nc4cccnc4)cc3)nc(N3CC4CCC(C3)O4)n2)C1 [Example 172, 1-{4-[4-(3-methyltetrahydropyrimidin-1(2H)-yl)-6-(8-oxa-3-azabicyclo[3.2.1]oct-3-yl)-1,3,5-triazin-2-yl]phenyl}-3-pyridin-3-ylurea]	8	9500	435	
O=C(Nc1ccc(-c2nc(OCCN3CCCCC3)nc(N3CC4CCC(C3)O4)n2)cc1)Nc1cccnc1 [Example 173, 1-{4-[4-(8-oxa-3-azabicyclo[3.2.1]oct-3-yl)-6-(2-piperidin-1-ylethoxy)-1,3,5-triazin-2-yl]phenyl}-3-pyridin-3-ylurea]	84	2500	1210	
FC(F)c1nc2ccccc2n1-c1nc(N2CC3CCC(C2)O3)nc(N2CC3CCC(C2)O3)n1 [Example 138, 2-(difluoromethyl)-1-(4,6-di-8-oxa-3-azabicyclo[3.2.1]oct-3-yl-1,3,5-triazin-2-yl)-1H-benzimidazole]	43.5	680		
1-(4-{4-[(1-methylethyl)amino]-6-(8-oxa-3-azabicyclo[3.2.1]oct-3-yl)-1,3,5-triazin-2-yl}phenyl)-3-[6-(4-methylpiperazin-1-yl)pyridin-3-yl]urea [Example 216]			521	IC50 (PI3K-γ): 7030 nM; IC50 [1, 2]: 50 nM
FC(F)c1nc2ccccc2n1-c1nc(N2CCOCC2)nc(N2CC3CCC(C2)O3)n1 [Example 139, 2-(difluoromethyl)-1-[4-morpholin-4-yl-6-(8-oxa-3-azabicyclo[3.2.1]oct-3-yl)-1,3,5-triazin-2-yl]-1H-benzimidazole]	74	180		
O=C(Nc1ccc(-c2nc(NC(CO)CO)nc(N3CC4CCC(C3)O4)n2)cc1)Nc1cccnc1 [Example 204, 1-{4-[4-{[2-hydroxy-1-(hydroxymethyl)ethyl]amino}-6-(8-oxa-3-azabicyclo[3.2.1]oct-3-yl)-1,3,5-triazin-2-yl]phenyl}-3-pyridin-3-ylurea]	3.5	6000		
CN1CCN(c2ccc(NC(=O)Nc3ccc(-c4nc(N5C6COCC5COC6)nc(N5C6COCC5COC6)n4)cc3)cc2)CC1 [Example 823, 1-[4-(4,6-di-3,7-dioxa-9-azabicyclo[3.3.1]non-9-yl-1,3,5-triazin-2-yl)phenyl]-3-[4-(4-methylpiperazin-1-yl)phenyl]urea]		55	661	IC50 (PI3K-γ): 2790 nM
CCN(CC)c1nc(-c2ccc(NC(=O)Nc3cccnc3)cc2)nc(N2CC3CCC(C2)O3)n1 [Example 194, 1-{4-[4-(diethylamino)-6-(8-oxa-3-azabicyclo[3.2.1]oct-3-yl)-1,3,5-triazin-2-yl]phenyl}-3-pyridin-3-ylurea]	27	600		
O=C(Nc1ccc(-c2nc(N(CCO)CCO)nc(N3CC4CCC(C3)O4)n2)cc1)Nc1cccnc1 [Example 205, 1-(4-{4-[bis(2-hydroxyethyl)amino]-6-(8-oxa-3-azabicyclo[3.2.1]oct-3-yl)-1,3,5-triazin-2-yl}phenyl)-3-pyridin-3-ylurea]	2	400		
CN1CCN(c2ccc(NC(=O)Nc3ccc(-c4nc(N5C[C@H]6C[C@@H]5CO6)nc(N5C[C@H]6C[C@@H]5CO6)n4)cc3)cc2)CC1 [Example 314, 1-{4-[4,6-di-(1R,4R)-2-oxa-5-azabicyclo[2.2.1]hept-5-yl-1,3,5-triazin-2-yl]phenyl}-3-[4-(4-methylpiperazin-1-yl)phenyl]urea]			1820	IC50 (PI3K-γ): 10000 nM; IC50 [1, 2]: 550 nM
CN1CCN(c2ccc(NC(=O)Nc3ccc(-c4nc(N5CC6CCC(C5)O6)nc(N5C6CCC5COC6)n4)cc3)cc2)CC1 [Example 303, 1-[4-(4-methylpiperazin-1-yl)phenyl]-3-{4-[4-(3-oxa-8-azabicyclo[3.2.1]oct-8-yl)-6-(8-oxa-3-azabicyclo[3.2.1]oct-3-yl)-1,3,5-triazin-2-yl]phenyl}urea]	17	0.8		
CCN(C)c1nc(-c2ccc(NC(=O)Nc3cccnc3)cc2)nc(N2CC3CCC(C2)O3)n1 [Example 202, 1-(4-{4-[ethyl(methyl)amino]-6-(8-oxa-3-azabicyclo[3.2.1]oct-3-yl)-1,3,5-triazin-2-yl}phenyl)-3-pyridin-3-ylurea]	5.5	700		
CN1CCN(c2ccc(Nc3nc(-c4ccc(NC(=O)Nc5ccc(C(N)=O)cc5)cc4)nc(N4CC5CCC(C4)O5)n3)cc2)CC1 [Example 318, 4-[({4-[4-{[4-(4-methylpiperazin-1-yl)phenyl]amino}-6-(8-oxa-3-azabicyclo[3.2.1]oct-3-yl)-1,3,5-triazin-2-yl]phenyl}carbamoyl)amino]benzamide]		1000	15.5	IC50 (PI3K-α; read-out: IC50 PI3Kα, listed as 334): 16 nM; IC50 (PI3K-γ): 679 nM; IC50 (PI3K-γ; listed as 334): 680 nM
O=C(Nc1ccc(-c2nc(N3CC4CCC(C3)O4)nc(N3CC4CNCC(C3)O4)n2)cc1)Nc1cccnc1 [Example 235, 1-{4-[4-(8-oxa-3-azabicyclo[3.2.1]oct-3-yl)-6-(9-oxa-3,7-diazabicyclo[3.3.1]non-3-yl)-1,3,5-triazin-2-yl]phenyl}-3-pyridin-3-ylurea]		7900	3210	IC50 (PI3K-γ): 4110 nM
CN(C)CCOc1ccc(NC(=O)Nc2ccc(-c3nc(N4CCSCC4)nc(N4C5CCC4COC5)n3)cc2)cc1 [Example 365, 1-(4-(4-(3-oxa-8-azabicyclo[3.2.1]octan-8-yl)-6-thiomorpholino-1,3,5-triazin-2-yl)phenyl)-3-(4-(2-(dimethylamino)ethoxy)phenyl)urea]	10	280		
O=C(Nc1ccc(-c2nc(N3CC4CCC(C3)O4)nc(N3C[C@@H]4C[C@H]3CN4)n2)cc1)Nc1cccnc1 [Example 206, 1-(4-{4-[(1S,4S)-2,5-diazabicyclo[2.2.1]hept-2-yl]-6-(8-oxa-3-azabicyclo[3.2.1]oct-3-yl)-1,3,5-triazin-2-yl}phenyl)-3-pyridin-3-ylurea]	56	5100		

Now from value to compound, other results behind:

IC50 (Human mTOR (FLAG-TOR)) [nM]	IC50 ([1]; Homo sapiens, LNCaP, 72 h) [nM]	IC50 (PI3K-α; read-out: IC50 PI3Kα) [nM]	Compound	other results
1	78		CCC(C)Nc1nc(-c2ccc(NC(=O)Nc3cccnc3)cc2)nc(N2CC3CCC(C2)O3)n1 (stereo not shown) [Example 203, 1-{4-[4-(sec-butylamino)-6-(8-oxa-3-azabicyclo[3.2.1]oct-3-yl)-1,3,5-triazin-2-yl]phenyl}-3-pyridin-3-ylurea]	
3	5		CN1CCN(c2ccc(NC(=O)Nc3ccc(-c4nc(-c5ccc(NC(=O)NC6CC6)cc5)nc(N5CC6CCC(C5)O6)n4)cc3)cc2)CC1 [Example 146, 1-cyclopropyl-3-(4-{4-[4-({[4-(4-methylpiperazin-1-yl)phenyl]carbamoyl}amino)phenyl]-6-(8-oxa-3-azabicyclo[3.2.1]oct-3-yl)-1,3,5-triazin-2-yl}phenyl)urea]	IC50 (PI3K-α): > 10000 nM
3.7	120		O=C(Nc1ccncc1)Nc1ccc(-c2nc(N3CCN(C(=O)c4ccncc4)CC3)nc(N3CC4CCC(C3)O4)n2)cc1 [Example 113, 1-{4-[4-(4-isonicotinoylpiperazin-1-yl)-6-(8-oxa-3-azabicyclo[3.2.1]oct-3-yl)-1,3,5-triazin-2-yl]phenyl}-3-pyridin-4-ylurea]	
	120	216	CNC(=O)Nc1ccc(-c2nc(Nc3ccc(N4CCN(C)CC4)cc3)nc(N3CC4CCC(C3)O4)n2)cc1 [Example 317, 1-methyl-3-{4-[4-{[4-(4-methylpiperazin-1-yl)phenyl]amino}-6-(8-oxa-3-azabicyclo[3.2.1]oct-3-yl)-1,3,5-triazin-2-yl]phenyl}urea]	IC50 (PI3K-γ): 6830 nM
0.5	50		O=C(Nc1ccc(-c2nc(Nc3ccc(N4CCNCC4)cc3)nc(N3CC4CCC(C3)O4)n2)cc1)Nc1cccnc1 [Example 208, 1-(4-{4-(8-oxa-3-azabicyclo[3.2.1]oct-3-yl)-6-[(4-piperazin-1-ylphenyl)amino]-1,3,5-triazin-2-yl}phenyl)-3-pyridin-3-ylurea]	
0.84	33.3		CN1CCN(c2ccc(Nc3nc(-c4ccc(NC(=O)Nc5cccnc5)cc4)nc(N4CC5CCC(C4)O5)n3)cc2)CC1 [Example 207, 1-{4-[4-{[4-(4-methylpiperazin-1-yl)phenyl]amino}-6-(8-oxa-3-azabicyclo[3.2.1]oct-3-yl)-1,3,5-triazin-2-yl]phenyl}-3-pyridin-3-ylurea]	
< 1	50		CNC(=O)Nc1ccc(-c2nc(-c3ccc(NC(=O)Nc4ccncc4)cc3)nc(N3CCOCC3)n2)cc1 [Example 468, 1-methyl-3-[4-(4-morpholin-4-yl-6-{4-[(pyridin-4-ylcarbamoyl)amino]phenyl}-1,3,5-triazin-2-yl)phenyl]urea]	
< 1	170		CNC(=O)Nc1ccc(-c2nc(-c3ccc(NC(=O)Nc4cccnc4)cc3)nc(N3CCOCC3)n2)cc1 [Example 467, 1-methyl-3-[4-(4-morpholin-4-yl-6-{4-[(pyridin-3-ylcarbamoyl)amino]phenyl}-1,3,5-triazin-2-yl)phenyl]urea]	
